Experiments:
human androgen receptor = target: T1, human androgen receptor (Homo sapiens, UniProt P10275); assay: binding affinity to the androgen receptor (reference standard 3H-methyltrienolone R 1881)
T1 sequence (P10275 1-920): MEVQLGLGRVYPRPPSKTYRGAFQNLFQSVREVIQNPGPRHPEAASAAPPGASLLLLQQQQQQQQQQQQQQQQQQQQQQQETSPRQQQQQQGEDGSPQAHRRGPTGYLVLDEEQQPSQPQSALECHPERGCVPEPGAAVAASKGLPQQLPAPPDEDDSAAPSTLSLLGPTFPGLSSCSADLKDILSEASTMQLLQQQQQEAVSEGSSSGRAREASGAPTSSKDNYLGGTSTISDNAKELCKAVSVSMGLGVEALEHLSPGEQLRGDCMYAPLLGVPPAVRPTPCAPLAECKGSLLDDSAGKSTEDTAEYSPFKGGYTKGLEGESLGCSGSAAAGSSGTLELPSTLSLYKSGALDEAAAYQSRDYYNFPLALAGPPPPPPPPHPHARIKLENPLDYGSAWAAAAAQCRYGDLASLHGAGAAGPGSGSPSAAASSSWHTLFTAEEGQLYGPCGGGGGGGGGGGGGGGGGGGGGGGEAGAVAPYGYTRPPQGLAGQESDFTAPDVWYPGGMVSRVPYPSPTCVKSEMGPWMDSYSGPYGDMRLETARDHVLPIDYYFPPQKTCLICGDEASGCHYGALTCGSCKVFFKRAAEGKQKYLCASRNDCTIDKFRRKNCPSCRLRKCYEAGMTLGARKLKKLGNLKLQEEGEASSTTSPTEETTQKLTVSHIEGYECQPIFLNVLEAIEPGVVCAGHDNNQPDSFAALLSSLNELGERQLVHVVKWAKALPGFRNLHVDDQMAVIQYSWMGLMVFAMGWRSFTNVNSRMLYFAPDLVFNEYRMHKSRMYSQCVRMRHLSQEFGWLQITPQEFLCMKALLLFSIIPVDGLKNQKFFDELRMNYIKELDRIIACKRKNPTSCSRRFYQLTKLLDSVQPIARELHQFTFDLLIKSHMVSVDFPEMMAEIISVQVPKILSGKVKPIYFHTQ

For `CCn1ccnc1SCC[C@]12CC[C@@H]3C(=CC[C@]4(C)[C@@H](O)CC[C@@H]34)[C@@]1(C)CC[C@H](O)C2`, the melting point was 212 °C.
In the case of `C[C@]12CC=C3[C@@H](CCC4=CC(=O)CC[C@@]43CI)[C@@H]1CC[C@@H]2O` [iodide 6, 17β-Hydroxy-19-iodo-androsta-4,9(11)-dien-3-one], the IC50 (human androgen receptor) is reported as 57 nM and the “affinity to the androgen receptor (in words)” value (human androgen receptor) is reported as “high affinity”.
In the case of `CCCCCCCSCC[C@]12CC[C@@H]3C(=CC[C@]4(C)[C@@H](O)CC[C@@H]34)[C@@]1(C)CC[C@H](O)C2`, the melting point is reported as 126 °C.
In the case of `C[C@]12CC=C3[C@@H](CCC4=CC(=O)CC[C@@]43CBr)[C@@H]1CC[C@@H]2O` [Example 2, 19-Bromo-17β-hydroxy-androsta-4,9(11)-dien-3-one], the “affinity to the androgen receptor (in words)” value (human androgen receptor) is reported as “high affinity” and the melting point is reported as 149 °C (dec.).

Source: patent publication US6790843B1, “C-19-halogen-substituted steroids of the androst-9(11)-ene-series, methods for the production and use thereof” (Schering AG, priority 1999, dated 2004)
